The source of these data is patent US5607934A, “Piperazine derivatives and salts thereof” (Otsuka Pharmaceutical Co., Ltd., priority 1993, dated 1997).

In brackets after ≈: the same amount, converted by molar mass.

The subject of experiment [1] is superoxide radicals (O2^-) released from the peritoneal macrophage cells of guinea pig. Put plainly: Inhibitory effect against superoxide radicals (O2^-) released from the peritoneal macrophage cells of guinea pig by stimulation (FMLP). It is filed as cell-based. The following applies: Cavia porcellus, Peritoneal macrophage cell; guinea pig peritoneal macrophages 2×10^6 cells/ml; FMLP 10^-7 M; cytochrome C reduction, OD550. As to the method:
Inhibitory effect against superoxide radicals (O2^-) released from the peritoneal macrophage cells of guinea pig by stimulation:
Mineral oil (15 ml)was intraperitoneally administered to a guinea pig, then 96 hours after the administration, the peritoneal macrophage cells were sampled.
Superoxide radicals (O2^-) were determined by means of reduction of cytochrome C method according to the procedure described in an article written by T. Matsumoto, K. Takeshige and S. Minakami: Biochemical and Biophysical Research Communications, Vol. 88, No. 3, pp. 974-979, (1979).
Into 1 ml of 80 μM-cytochrome C solution, the peritoneal macrophage cells were added to make the final concentration of 2×10^6 cells/ml, then each one of the test compounds of the present invention was added thereto to make the test group sample. On the other hand, water was added in place of the test compound of the present invention to make the control group sample. Each of the test group samples and the control group samples were subjected to pre-incubation at 37° C. for 1 minute.
As to the stimulating agent for releasing superoxide radicals (O2^-), FMLP (formylmethionyl leucyl phenylalanine)was added to each one of the test sample solutions and the control group samples to make the final concentration of FMLP to 10^-7 M, then the sample solutions were subjected to additional reaction by incubation for 1 minute.
Difference between the optical absorbances measured at 550 nm (OD550) of both test group samples and control group samples were determined, the 50% inhibitory concentration (IC50) was obtained by calculating as the ratio of OD550 of the test group sample to that of the control group sample.

Experiment [2] concerns releasing of hydrogen peroxide (H2 O2) from the neutrocyte of abdominal cavity of rat. Description: Inhibitory effect against the releasing of hydrogen peroxide (H2O2) from the neutrocyte of abdominal cavity of rat. It is filed as cell-based, SD-strain rat. Particulars: rat neutrocytes 10^6 cells/ml; FMLP 2×10^-6 M; 37° C., 1 hour; OD610. As to the method: Inhibitory effect against the releasing of hydrogen peroxide (H2 O2) from the neutrocyte of abdominal cavity of rat
1%-Casein solution was administered to the abdominal cavity of a SD-strain rat, then 16 hours after the administration, the neutrocytes were obtained by washing the abdominal cavity. Thus obtained neutrocytes were washed with Hank's solution.
In to a reaction mixture consisting of the following ingredients:
______________________________________
HRP (Horse Radish peroxide)
HEPES [N-(2-Hydroxyethyl)pipera-
zine N'-2-ethanesulfonic acid]
Rat neutrocytes 10^6 cells/ml
the test compound was added, then the whole mixture was incubated at 37° C. for 1 hour, and the mixture was subjected to a centrifugal separation at 2,000 rpm for minutes. After the centrifugal separation, 1 ml of the supernatant was sampled and 10 μl of 1N-NaOH aqueous solution was added thereto. Then, the optical absorbance at 610 nm (OD610) of the supernatant was determined by means of using a spectro-photometer.
The IC50 (50% inhibitory concentration) of the test compound was obtained by calculating as the ratio of OD610 of the test group sample to that of the control group sample.

For experiment [3], the system named is passive Heymann nephritis of rat. Put plainly: Inhibitory effect against increase of urinary proteins in the passive Heymann nephritis of rat. It counts as in vivo, SD-strain male rats. Particulars: oral, once a day for 7 days, urinary protein, 12th day. As to the method: Inhibitory effect against increase of urinary proteins in the passive Heymann nephritis of rat
SD-strain male rats (7 week old, body weight: 200-230 g)were used as test animals.
An antiserum which will induce passive Heymann nephritis of rat was prepared by procedures according to the method of T. S. Edington, et al. [T. S. Edington, R. J. Glassock and F. J. Dixon: Autologous immune complex nephritis induced with renal tublar antigen. I. Identification and isolation of the pathogenetic antigen. Journal of Experimental Medicine Vol. 127, pp. 555-572 (1968).] as follows:
At the first, an antigen (FX1A fraction) of the renaltublar brush border was sampled from the SD rat. Next, the antigen was admixed with Freund' complete adjuvant, then a New Zealand White rabbit was sensitized therewith. The sensitization procedures were conducted 3 times in every 2 weeks, and 2 weeks after the final sensitization, the blood sample was obtained from the rabbit. […]
Heymann nephritis of the rats were induced by injecting the above-mentionedantiserum to the tail vein of the test rats. […] The urine samples of the rat were taken in time sequentially from the 10th day after the injection, and the amount of urinary protein in the samples were determined. The rate of inhibitory effect (%) against the production of urinary protein performed by the test compound was calculated by the formula as follows: […]

The test system of experiment [4] is rat mesangial cell proliferation. Description: Inhibitory effects on rat mesangial cell proliferation (interleukin-1β induced 3H-thymidine incorporation). The following applies: 1 ng/ml interleukin-1β, read-out: Rate of inhibition; for inhibition at 3 µg/mL: concentration 3 μg/ml; for inhibition at 10 µg/mL: concentration 10 μg/ml. It is filed as cell-based, SD-strain rat. As to the method: Inhibitory effects on rat mesangial cell proliferation
The kidney of SD-strain rat was aseptically taken out by excision. and the renal cortex was cut out therefrom. The renal glomeruli were isolated by use of sieve. The glomeruli were cultivated in RPMI1640 culture medium [which contains 10% of FBS (fetal bovine serum)] for 4 weeks. Thus obtained cells were used as mesangial cells.
An experiment of incorporation of thymidine by interleukin-1β was conducted by procedures according to the method of Ganz [Michael B. Ganz; Mary C. Perfetto and Walter F. Boron: American Journal of Physiology, Vol. 259, F269-F278, (1990)]. Thus, 2×10^4 cells/ml of mesangial cells were scattered on a 48-well plate (0.5 ml/well), and the cells were cultivated in RPMI culture medium (which contains 10% of FBS) for 3 days. Then, the culture medium was changed to another RPMI culture medium in which the concentration of FBS was decreased from 10% to 0.5% and cultivated for 3 days. Next, the RPMI culture medium (containing 0.5% of FBS) was changed to other RPMI culture medium to which the test compound and 1 ng/ml of interleukin-1β were added. The cultivation was conducted for 24 hours, then 1 μCi/well of 3H-thymidine was added to the culture medium, and the cultivation was continued for additional 24 hours.
The amount of ^3 H-thymidine being incorporated into the mesangial cells was measured by use of a scintillation counter, and the rate of inhibition (%) in comparison of the test group vs. control group was calculated by the following formula:
Rate of inhibition (%)=[(C-D)/(C-E)]×100
C: the incorporated amount of ^3 H-thymidine in control group;
D: the incorporated amount of ^3 H-thymidine in the case of that test compound was added;
E: the incorporated amount of ^3 H-thymidine in the case of that interleukin-1β was not added.

As for `CC(C)C[C@@H]1C(=O)N[C@H](Cc2cc(C(C)(C)C)c(O)c(C(C)(C)C)c2)C(=O)N1O` (racemic) [Example 13, (3RS,6RS)-3-(3,5-di-tert-butyl-4-hydroxybenzyl)-1-hydroxy-6-isobutylpiperazine-2,5-dione], the figures for the IC50 in experiment [1] and in experiment [2] were 1.3 µg/mL (≈ 3.21 µM) and under 5 µg/mL, respectively. The “Rate of inhibitory effect” value in experiment [3] (20 mg/kg/day) was 57.8 ± 6.1%. For the same molecule, the inhibition – broadly, the drop in the measured response relative to a control, in per cent – at 3 µg/mL in experiment [4] was 77.9 ± 8.3%. The inhibition at 10 µg/mL in experiment [4] came out at 122 ± 6.1%.
Turning to `CCOC(=O)C[C@@H]1NC(=O)[C@@H](Cc2c[nH]c3ccccc23)N(O)C1=O` [Example 57], the midpoint of inhibition in experiment [2], the IC50, lay at 3 µg/mL (≈ 8.69 µM). Also, in experiment [3] (5 mg/kg/day), the “Rate of inhibitory effect” value was found to be 53.1 ± 15.1%. For the same molecule, in experiment [4], the inhibition at 3 µg/mL was 26.3 ± 5.8% and the inhibition at 10 µg/mL was determined as 56.7 ± 2.9%.
